Results reported in patent US20060068071A1, “Saturated and unsaturated N-alkamides exhibiting taste and flavor enhancement effect in flavor compositions” (priority 2004, published 2006).

Assay: Organoleptic properties (taste profile) of the amides
Description: More specifically, examples of the organoleptic properties for the dienalkylamides of our invention are as follows: […]

[1] = Formula II compounds, at 10 ppm

| SMILES | Taste profile (Formula II compounds) | also measured |
| --- | --- | --- |
| CC(C)=CCC/C(C)=C\CNC(=O)C(C)C | Salt enhancement, MSG enhancement, Umami, brothy, sweet end profile | – |
| CC(C)=CCC/C(C)=C\CNC(=O)C=C(C)C | – | Taste profile [1]: Clean, weak umami effect at 10 ppm |
| CC(C)=CCC/C(C)=C/CNC(=O)C(C)C | Some salt enhancement, umami and strong MSG effect, sweet end profile | – |
| CCCCC/C=C\CC/C=C/CNC(=O)C1CC1 | – | Taste profile (Formula I compounds): Oily, moderate umami |
| CC(C)=CCC/C(C)=C\CNC(=O)C1CC1 | Salty, MSG, Umami, brothy, mouthfeel, sweetness. | – |
| CC(C)=CCC/C(C)=C/CNC(=O)C1CC1 | Salt, MSG, Umami, mouthfeel, lasting sweetness. | – |
| CC/C=C\CC/C=C(\C)CNC(C)=O | – | Taste profile (Formula I compounds, at 10 ppm): Potent warming at 10 ppm |
| C/C=C/C(=O)NC/C=C(\C)CCC=C(C)C | Moderate umami, salt like, lemon character. | – |
| CC/C=C\CC/C=C/CNC(=O)C1CC1 | – | Taste profile (Formula I compounds): Moderate Umami, off fish oily character |
| CC(C)=CCC/C(C)=C/CNC(=O)C=C(C)C | – | Taste profile [1]: Clean, weak umami effect at 10 ppm |
| C/C=C/C(=O)NC/C=C(/C)CCC=C(C)C | Moderate umami, some saltiness. | – |
